Source: patent US10100045B2, “3-aryl-2H-pyrazolo[4,3-b]pyridine compounds and their use as AMPA receptor modulators” (Janssen Pharmaceutica NV, priority 2016, dated 2018)

Target: GluA1o-γ8 (GRIA1o-CACNG8 fusion construct; TARP γ8 dependent AMPA receptor) (Homo sapiens (Human), UniProt P42261+Q8WXS5)
Assay: Calcium flux assay (FLIPR), inhibition of glutamate response of GluA1o-γ8 channel
Assay type: cell-based
Details: HEK293 cells stably expressing GRIA1o-CACNG8 fusion; 15 μM glutamate; negative log of the IC50 in molar
From the text: This assay was used to test compounds for their ability to inhibit TARP γ8 dependent AMPA receptor activity. The AMPA receptor is a non-selective cation channel activated by glutamate. Ionotropic glutamate receptors normally desensitize too rapidly to allow detectable calcium influx in a FLIPR assay (Strange et al. (2006). “Functional characterisation of homomeric ionotropic glutamate receptors GluR1-GluR6 in a fluorescence-based high throughput screening assay.” Comb Chem High Throughput Screen 9(2): 147-158). But, this desensitization is incomplete, and a substantial steady-state current remains in the sustained presence of glutamate (Cho et al. (2007). “Two families of TARP isoforms that have distinct effects on the kinetic properties of AMPA receptors and synaptic currents.” Neuron 55(6): 890-904). An in vitro assay was used to determine the potency of test compounds as inhibitors of the glutamate response of the channel formed by GluA1o-γ8. To ensure a 1:1 stoichiometry of GluA1o and γ8 subunits in the expressed channel, a fusion of the cDNAs for GRIA1o and CACNG8 was used. Following Shi et al (2009) “The stoichiometry of AMPA receptors and TARPs varies by neuronal cell type.” Neuron 62(5): 633-640), the C-terminus of the cDNA for GRIA1o was fused to the N-terminus of the cDNA for γ8. The linker sequence was QQQQQQQQQQEFAT. Channels expressed with this construct appear to have similar properties to channels formed by co-expression of GRIA1o with an excess of CACNG8 (Shi et al. 2009). A clonal cell line in HEK293 cells stably expressing this construct, with a geneticin selection marker, was generated for use in this assay.
Cell expressing the GRIA1o-CACNG8 fusion construct were grown in a monolayer in 96- or 384-well microtiter plates. They were washed with assay buffer (135 mM NaCl, 4 mM KCl, 3 mM CaCl2, 1 mM MgCl2, 5 mM glucose, 10 mM HEPES, pH 7.4, 300 mOs) using a Biotek EL405 plate washer. The cells were then loaded with a calcium-sensitive dye (Calcium-5 or Calcium-6, Molecular Devices) and the test compounds at a range of concentrations. Calcium flux following the addition of 15 μM glutamate was monitored using a Molecular Devices FLIPR Tetra. The fluorescence in each well was normalized to the fluorescence of negative and positive control wells. The negative control wells had no added compounds, and the positive control wells had been incubated with 10 μM CP465022 (a non-subtype-selective AMPA receptor antagonist) (Lazzaro et al. (2002). “Functional characterization of CP-465,022, a selective, noncompetitive AMPA receptor antagonist.” Neuropharmacology 42(2): 143-153). The responses to glutamate as functions of the test compound concentrations were fitted to a four-parameter logistic function. The fitted parameter corresponding to the midpoint was taken to be the potency of inhibition of the compound. The data in Table 3 below illustrates the observed potentcy for the compounds described herein. pIC50 refers to the negative log of the IC50 in molar.

GluA1o-γ8 (GRIA1o-CACNG8 fusion construct; TARP γ8 dependent AMPA receptor), sequence (P42261 other isoform, or with tags, fused parts or gaps): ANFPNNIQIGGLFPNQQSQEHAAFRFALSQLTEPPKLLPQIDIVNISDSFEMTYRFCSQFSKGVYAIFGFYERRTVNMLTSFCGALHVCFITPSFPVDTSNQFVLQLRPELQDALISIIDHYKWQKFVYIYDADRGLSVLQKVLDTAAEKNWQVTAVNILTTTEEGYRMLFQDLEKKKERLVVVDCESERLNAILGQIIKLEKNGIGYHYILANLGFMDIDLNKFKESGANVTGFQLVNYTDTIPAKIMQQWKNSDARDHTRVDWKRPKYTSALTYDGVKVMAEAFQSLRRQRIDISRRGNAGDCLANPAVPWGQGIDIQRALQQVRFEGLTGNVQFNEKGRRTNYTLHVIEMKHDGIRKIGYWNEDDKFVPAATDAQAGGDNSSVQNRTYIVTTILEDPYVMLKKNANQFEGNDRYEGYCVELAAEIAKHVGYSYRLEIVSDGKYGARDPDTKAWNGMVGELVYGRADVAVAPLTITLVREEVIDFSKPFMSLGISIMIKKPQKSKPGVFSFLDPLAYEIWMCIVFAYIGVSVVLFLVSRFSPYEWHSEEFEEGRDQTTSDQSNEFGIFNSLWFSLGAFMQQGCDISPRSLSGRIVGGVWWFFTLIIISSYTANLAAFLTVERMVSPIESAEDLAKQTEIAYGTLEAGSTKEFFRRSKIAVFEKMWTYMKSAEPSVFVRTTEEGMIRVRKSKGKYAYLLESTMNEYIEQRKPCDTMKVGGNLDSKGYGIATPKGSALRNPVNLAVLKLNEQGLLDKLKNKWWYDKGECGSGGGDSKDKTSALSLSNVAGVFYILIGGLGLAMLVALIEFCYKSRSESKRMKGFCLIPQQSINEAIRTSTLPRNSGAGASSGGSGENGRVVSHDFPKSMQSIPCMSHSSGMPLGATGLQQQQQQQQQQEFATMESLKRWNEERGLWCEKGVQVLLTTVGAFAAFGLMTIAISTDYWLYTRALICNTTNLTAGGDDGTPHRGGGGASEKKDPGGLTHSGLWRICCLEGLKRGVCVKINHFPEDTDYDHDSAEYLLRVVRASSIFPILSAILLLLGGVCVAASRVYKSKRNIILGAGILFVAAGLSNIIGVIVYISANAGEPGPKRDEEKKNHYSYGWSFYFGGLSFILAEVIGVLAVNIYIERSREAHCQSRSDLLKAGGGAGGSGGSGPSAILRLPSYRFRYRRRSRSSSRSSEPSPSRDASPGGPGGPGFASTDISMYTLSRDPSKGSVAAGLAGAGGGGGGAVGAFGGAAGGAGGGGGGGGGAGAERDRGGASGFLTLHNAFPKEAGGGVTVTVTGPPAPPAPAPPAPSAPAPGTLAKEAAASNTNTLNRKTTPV

Compound	pIC50
Cc1cc(-c2c3nc(C(F)(F)F)ccc3nn2C)cc2cn[nH]c12 [Example 15, 2-Methyl-3-(7-methyl-1H-indazol-5-yl)-5-(trifluoromethyl)-2H-pyrazolo[4,3-b]pyridine]	9.0
CCn1nc2ccc(C(F)(F)F)nc2c1-c1cc(Cl)c2[nH]ncc2c1 [Example 20, 3-(7-Chloro-1H-indazol-5-yl)-2-ethyl-5-(trifluoromethyl)-2H-pyrazolo[4,3-b]pyridine]	9.4
O=c1[nH]c2ccc(-c3c4nc(C(F)(F)F)ccc4nn3C3CCCC3)cc2[nH]1 [Example 7, 5-(2-Cyclopentyl-5-(trifluoromethyl)-2H-pyrazolo[4,3-b]pyridin-3-yl)-1,3-dihydro-2H-benzo[d]imidazol-2-one]	7.8
Cc1cc(-c2c3nc(C(F)(F)F)ccc3nn2C(F)F)cc2c1NC(=O)C2 [Example 3, 5-[2-(Difluoromethyl)-5-(trifluoromethyl)pyrazolo[4,3-b]pyridin-3-yl]-7-methyl-indolin-2-one]	9.0
CC(C)n1nc2ccc(C(F)(F)F)nc2c1-c1cc(Cl)c2[nH]ncc2c1 [Example 24, 3-(7-Chloro-1H-indazol-5-yl)-2-isopropyl-5-(trifluoromethyl)-2H-pyrazolo[4,3-b]pyridine]	10.2
Cc1cc(-c2c3nc(C(F)(F)F)ccc3nn2C(F)F)cc2cn[nH]c12 [Example 30, 2-(Difluoromethyl)-3-(7-methyl-1H-indazol-5-yl)-5-(trifluoromethyl)-2H-pyrazolo[4,3-b]pyridine]	9.2
Cc1cc(-c2c3nc(C(F)(F)F)ccc3nn2C2CCCC2)cc2cn[nH]c12 [Example 8, 2-Cyclopentyl-3-(7-methyl-1H-indazol-5-yl)-5-(trifluoromethyl)-2H-pyrazolo[4,3-b]pyridine]	9.9
